For 23 molecules, Ki results are on record in patent US9365583B2, “Substituted pyrazoles and uses thereof” (Genentech, Inc., priority 2013, dated 2016).

The target of this assay is T1, N-terminally GST-tagged DLK (catalytic domain amino acid 1-520) (Homo sapiens, UniProt Q12852).
T1 construct: N-terminally GST-tagged DLK (catalytic domain amino acid 1-520); purchased Carna Bioscience
T1 sequence (Q12852 1-520): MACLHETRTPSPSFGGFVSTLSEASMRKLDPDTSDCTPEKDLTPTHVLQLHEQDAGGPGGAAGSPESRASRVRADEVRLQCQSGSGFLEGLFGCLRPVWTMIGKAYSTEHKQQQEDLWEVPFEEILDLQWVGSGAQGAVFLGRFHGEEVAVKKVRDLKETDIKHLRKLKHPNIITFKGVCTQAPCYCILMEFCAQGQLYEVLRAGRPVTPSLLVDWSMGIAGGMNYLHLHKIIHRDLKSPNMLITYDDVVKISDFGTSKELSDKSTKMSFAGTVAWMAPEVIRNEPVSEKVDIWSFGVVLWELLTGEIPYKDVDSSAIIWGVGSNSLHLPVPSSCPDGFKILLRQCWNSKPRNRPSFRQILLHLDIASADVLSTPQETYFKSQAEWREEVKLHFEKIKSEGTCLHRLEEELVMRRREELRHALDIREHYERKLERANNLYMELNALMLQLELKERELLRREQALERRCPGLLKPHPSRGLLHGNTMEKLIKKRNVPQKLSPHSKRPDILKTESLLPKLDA
Nature of the assay: DLK TR-FRET inhibition assay. The settings on record: 5 nM GST-DLK, 40 nM HIS-MKK4 K131M substrate, 30 μM ATP, 60 minutes at ambient temperature. Format: biochemical. The procedure, abridged:
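Phosphorylated MKK4 was quantified by TR-FRET (Eu-labelled anti-phospho-MKK4, D2 anti-HIS; 3 h, 665 and 615 nm emission) after EDTA quench. Reactions held 5 nM GST-tagged DLK catalytic domain (1-520), 40 nM HIS-MKK4 K131M substrate, 30 μM ATP and compound (3-fold series from 20 uM), 60 min, room temperature, pH 7.5.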
`CC(C)n1nc(-c2cnc(N)c(C(F)(F)F)c2)cc1[C@H]1[C@@H]2C[C@H](N3CC4(COC4)C3)C[C@@H]21` [compound 65, 5-(5-((1R,3r,5S,6r)-3-(2-oxa-6-azaspiro[3.3]heptan-6-yl)bicyclo [3.1.0]hexan-6-yl)-1-isopropyl-1H-pyrazol-3-yl)-3-(trifluoro-methyl)pyridin-2-amine] yielded a Ki of 1.13 nM.

`CC(C)n1nc(-c2cnc(N)c(C(F)(F)F)c2)cc1[C@H]1[C@@H]2CC(N3CC4COCC4C3)C[C@@H]21` (single isomer, unassigned) [compound 277] gave a Ki of 2.3 nM.

`CC(C)n1nc(-c2cnc(N)c(OC(F)F)c2)cc1[C@H]1[C@@H]2C[C@H](N3C[C@@H]4C[C@H]3CO4)C[C@@H]21` [compound 83, 5-(5-((1R,3r,5S,6S)-3-((1S,4S)-2-oxa-5-azabicyclo[2.2.1]heptan-5-yl)bicyclo[3.1.0]hexan-6-yl)-1-isopropyl-1H-pyrazol-3-yl)-3-(difluoromethoxy)pyridin-2-amine] displayed a Ki of 0.12 nM.

`CC(C)n1nc(-c2cnc(N)c(C(F)(F)F)c2)cc1[C@H]1[C@@H]2C[C@H](N(C)CC3COC3)C[C@@H]21` [compound 20, 5-(1-isopropyl-5-((1R,3r,5S,6r)-3-(methyl(oxetan-3-ylmethyl)amino)bicyclo[3.1.0]hexan-6-yl)-1H-pyrazol-3-yl)-3-(trifluoro-methyl)pyridin-2-amine]: the Ki turned out to be 4.39 nM.

The molecule `CC(C)n1nc(-c2cnc(N)c(C(F)(F)F)c2)cc1C1[C@H]2CC(N3CCOCC3)C[C@@H]12` (stereo partly drawn) [compound 76, 5-(1-isopropyl-5-((1R,3s,5S,6r)-3-morpholinobicyclo[3.1.0]hexan-6-yl)-1H-pyrazol-3-yl)-3-(trifluoromethyl)pyridin-2-amine] came in with a Ki of 2.17 nM. This Ki is about 2-fold lower than that of the molecule before.

`CC(C)n1nc(-c2cnc(N)c(OC(F)F)c2)cc1[C@H]1[C@@H]2C[C@@H](N3CCN(C)C[C@@H]3C)C[C@@H]21` [compound 241, 3-(difluoromethoxy)-5-(5-((1R,3s,5S,6S)-3-((S)-2,4-dimethyl-piperazin-1-yl)bicyclo[3.1.0]hexan-6-yl)-1-isopropyl-1H-pyrazol-3-yl)pyridin-2-amine]: the Ki worked out at 2 nM.

As for `CC(C)n1nc(-c2cnc(N)c(OC(F)(F)F)c2)cc1[C@H]1[C@@H]2C[C@@H](N3CCCN(C)CC3)C[C@@H]21` [compound 203, 5-(1-isopropyl-5-((1R,3s,5S,6r)-3-(4-methyl-1,4-diazepan-1-yl)bicyclo[3.1.0]hexan-6-yl)-1H-pyrazol-3-yl)-3-(trifluoromethoxy) pyridin-2-amine], affinity was put at a Ki of 0.9 nM.

Take `CC(C)n1nc(-c2cnc(N)c(C(F)(F)F)c2)cc1[C@H]1[C@@H]2C[C@H](N3CC(F)C3)C[C@@H]21` [compound 36, 5-(5-((1R,3r,5S,6r)-3-(3-fluoro-azetidin-1-yl)bicyclo[3.1.0]hexan-6-yl)-1-isopropyl-1H-pyrazol-3-yl)-3-(trifluoromethyl)pyridin-2-amine]: the Ki came out at 1.53 nM.

For the molecule `CC(C)n1nc(-c2cnc(N)c(C(F)(F)F)c2)cc1[C@H]1[C@@H]2C[C@H](N3C[C@@H]4C[C@H]3CO4)C[C@@H]21` [compound 72, 5-(5-((1R,3r,5S,6S)-3-((1S,4S)-2-oxa-5-azabicyclo[2.2.1]heptan-5-yl)bicyclo[3.1.0]hexan-6-yl)-1-isopropyl-1H-pyrazol-3-yl)-3-(trifluoromethyl)pyridin-2-amine], the affinity, expressed as Ki, was 3.48 nM.

`CC(C)n1nc(-c2cnc(N)c(OC(F)F)c2)cc1[C@H]1[C@@H]2C[C@@H](NCC(F)(F)F)C[C@@H]21` [compound 121, 3-(difluoromethoxy)-5-(1-isopropyl-5-((1R,3s,5S,6r)-3-((2,2,2-trifluoroethyl)amino)bicyclo [3.1.0]hexan-6-yl)-1H-pyrazol-3-yl) pyridin-2-amine] displayed a Ki of 6.68 nM.

In turn, `CC(C)n1nc(-c2cnc(N)c(C(F)(F)F)c2)cc1[C@H]1[C@@H]2C[C@H](OC3COC3)C[C@@H]21` [compound 287, 5-(1-isopropyl-5-((1R,3r,5S,6r)-3-(oxetan-3-yloxy)bicyclo[3.1.0]hexan-6-yl)-1H-pyrazol-3-yl)-3-(trifluoromethyl)pyridin-2-amine] had an inhibitory constant (Ki) of 6.3 nM. This Ki and that of the molecule before are within 1.5-fold of each other.

As for `Nc1ncc(-c2cc([C@H]3[C@@H]4C[C@H](N5CCOCC5)C[C@@H]43)n(CC3CC3)n2)cc1OC(F)(F)F` [compound 295, 5-(1-(cyclopropylmethyl)-5-((1R,3r,5S,6r)-3-morpholinobicyclo [3.1.0]hexan-6-yl)-1H-pyrazol-3-yl)-3-(trifluoromethoxy) pyridin-2-amine], the affinity corresponds to a Ki of 2.4 nM.

The molecule `COC1CCN([C@H]2C[C@@H]3[C@H](C2)[C@H]3c2cc(-c3cnc(N)c(OC(F)F)c3)nn2C(C)C)CC1` [compound 247, 3-(difluoromethoxy)-5-(1-isopropyl-5-((1R,3r,5S,6r)-3-(4-methoxypiperidin-1-yl)bicyclo[3.1.0]hexan-6-yl)-1H-pyrazol-3-yl) pyridin-2-amine] had an inhibitory constant (Ki) of 2.9 nM.

In turn, `CC(C)n1nc(-c2cnc(N)c(OC(F)F)c2)cc1[C@H]1[C@@H]2C[C@H](OC3COC3)C[C@@H]21` [compound 230, 3-(difluoromethoxy)-5-(1-iso-oprpyl-5-((1R,3r,5S,6r)-3-(oxetan-3-yloxy)bicyclo[3.1.0]hexan-6-yl)-1H-pyrazol-3-yl)pyridin-2-amine] gave a Ki of 3.4 nM.

`CC(C)n1nc(-c2cnc(N)c(OC(F)F)c2)cc1[C@H]1[C@@H]2C[C@@H](N3CCN4CCCC4C3)C[C@@H]21` (stereo partly drawn) [compound 88, 3-(difluoromethoxy)-5-(5-((1R,3s,5S,6r)-3-(hexahydropyrrolo [1,2-a]pyrazin-2(1H)-yl)bicyclo [3.1.0]hexan-6-yl)-1-isopropyl-1H-pyrazol-3-yl)pyridin-2-amine]: affinity was put at a Ki of 1.4 nM.

On to `CC(C)n1nc(-c2cnc(N)c(C(F)(F)F)c2)cc1[C@H]1[C@@H]2C[C@H](N3CCCN(C)CC3)C[C@@H]21` [compound 211, 5-(1-isopropyl-5-((1R,3r,5S,6r)-3-(4-methyl-1,4-diazepan-1-yl)bicyclo[3.1.0]hexan-6-yl)-1H-pyrazol-3-yl)-3-(trifluoromethyl) pyridin-2-amine], for which the Ki was 3.2 nM.

With `CC(C)n1nc(-c2cnc(N)c(C(F)(F)F)c2)cc1[C@H]1[C@@H]2C[C@@H](N(C)C3COC3)C[C@@H]21` [compound 50, 5-(1-isopropyl-5-((1R,3s,5S,6r)-3-(methyl(oxetan-3-yl)amino)bicyclo[3.1.0]hexan-6-yl)-1H-pyrazol-3-yl)-3-(trifluoromethyl) pyridin-2-amine], the inhibition constant Ki worked out at 2.83 nM. The Ki values of the last two molecules are within 1.5-fold of each other.

Molecule `COC1CN([C@@H]2C[C@@H]3[C@H](C2)[C@H]3c2cc(-c3cnc(N)c(C(F)(F)F)c3)nn2CC(F)F)C1` [compound 149, 5-(1-(2,2-difluoroethyl)-5-((1R,3s,5S,6r)-3-(3-methoxyazetidin-1-yl)bicyclo[3.1.0]hexan-6-yl)-1H-pyrazol-3-yl)-3-(trifluoromethyl) pyridin-2-amine] had a Ki of 4.1 nM.

In turn, `CC(C)n1nc(-c2cnc(N)c(SC(F)(F)F)c2)cc1[C@H]1[C@@H]2C[C@@H](N3CCOCC3)C[C@@H]21` [compound 95, 5-(1-isopropyl-5-((1R,3s,5S,6r)-3-morpholinobicyclo[3.1.0]hexan-6-yl)-1H-pyrazol-3-yl)-3-((trifluoro-methyl)thio)pyridin-2-amine] showed a Ki of 2.13 nM. Compared with the last molecule, the Ki is about 1.9-fold lower.

Take `CC(C)n1nc(-c2cnc(N)c(C(F)(F)F)c2)cc1[C@@H]1[C@H]2CC[C@@H](N3CCOCC3)[C@H]21` (single isomer, unassigned) [compound 138, 5-(1-isopropyl-5-(2-morpholinobicyclo[3.1.0]hexan-6-yl)-1H-pyrazol-3-yl)-3-(trifluoromethyl) pyridin-2-amine]: the inhibition constant (Ki) worked out at 12.9 nM.

For `CC(C)n1nc(-c2cnc(N)c(C(F)(F)F)c2)cc1[C@H]1[C@@H]2C[C@@H](N3CCN4CCCC4C3)C[C@@H]21` (single isomer, unassigned) [compound 263], the Ki was 1 nM.

As to `CC(C)n1nc(-c2cnc(N)c(C(F)(F)F)c2)cc1[C@H]1[C@@H]2C[C@H](N3CCN(CC(F)F)CC3)C[C@@H]21` [compound 265, 5-(5-((1R,3r,5S,6r)-3-(4-(2,2-difluoroethyl)piperazin-1-yl)bicyclo[3.1.0]hexan-6-yl)-1-isopropyl-1H-pyrazol-3-yl)-3-(trifluoromethyl)pyridin-2-amine], the inhibitory constant (Ki) was 2.5 nM.

Molecule `CC(C)n1nc(-c2cnc(N)c(OC(F)(F)F)c2)cc1[C@H]1[C@@H]2C[C@H](N3CCCN(C)CC3)C[C@@H]21` [compound 204, 5-(1-isopropyl-5-((1R,3r,5S,6r)-3-(4-methyl-1,4-diazepan-1-yl)bicyclo[3.1.0]hexan-6-yl)-1H-pyrazol-3-yl)-3-(trifluoromethoxy) pyridin-2-amine] displayed a Ki of 1.2 nM. Against the preceding molecule, the Ki is about 2.1-fold lower.
